System: PC3 cells
Experiment: NAMPT Cell Proliferation Assay (Cell Titer Glo; also performed in the presence of 0.3 mM nicotinamide mononucleotide)
Format: cell-based
Conditions: Homo sapiens, PC-3, 120 h, 5 days incubation, cell viability by Cell Titer Glo
Procedure: NAMPT Cell Proliferation Assay
PC3 cells were seeded in 96-well black plates (Corning #3904) at 500 cells/well in 90 μl of RPMI media containing 10% heat-inactivated FBS and incubated overnight at 37° C. and 5% CO2 to allow cells to attach to wells. The following day, test compounds were serially diluted in neat DMSO to 1000× final concentrations prior to dilution with RPMI media to 10× and 1% DMSO. Ten μL of the 10× compounds were then transferred to wells containing cells to produce a dose response of 10-fold dilutions from 10 μM to 1×10^−5 μM. Cells were incubated for 5 days at 37° C. and 5% CO2, then cell viability was measured using Cell Titer Glo reagent (Promega #G7571). Percent inhibition values were calculated and fitted to a sigmoidal dose response curves using Assay Explorer software to determine IC50s.

Point of comparison: CC[C@@H](C)NC(=O)c1ccc(NC(=O)C2CN(c3cccnn3)C2)cc1 [Example 987, N-{4-[(2R)-butan-2-ylcarbamoyl]phenyl}-1-(pyridazin-3-yl)azetidine-3-carboxamide], IC50 609 nM. Against it:
- O=C(Nc1ccc(CC2CCN(C(=O)c3ccsc3)CC2)cc1)C1CN(c2cccnn2)C1 [Example 942, 1-(pyridazin-3-yl)-N-(4-{[1-(thiophen-3-ylcarbonyl)piperidin-4-yl]methyl}phenyl)azetidine-3-carboxamide] — 220-fold lower, 2.76 nM
- C=CCC(=O)N1CCC(Cc2ccc(NC(=O)C3CN(c4cccnn4)C3)cc2)CC1 [Example 950, N-(4-{[1-(but-3-enoyl)piperidin-4-yl]methyl}phenyl)-1-(pyridazin-3-yl)azetidine-3-carboxamide] — 100-fold lower, 6.06 nM
- O=C(Nc1ccc(CC2CCN(C(=O)C3CCC3)CC2)cc1)C1CN(c2cccnn2)C1 [Example 960, N-(4-{[1-(cyclobutylcarbonyl)piperidin-4-yl]methyl}phenyl)-1-(pyridazin-3-yl)azetidine-3-carboxamide] — 210-fold lower, 2.86 nM
- Cc1ccc(N2CC[C@H](C(=O)Nc3ccc(C4CCN(C(=O)C(C)(C)C)CC4)cc3)C2)nn1 [Example 894, (3S)—N-{4-[1-(2,2-dimethylpropanoyl)piperidin-4-yl]phenyl}-1-(6-methylpyridazin-3-yl)pyrrolidine-3-carboxamide] — within 1.5-fold, 752 nM
- Cc1ccc(C(=O)N2CCC(Cc3ccc(NC(=O)C4CN(c5cccnn5)C4)cc3)CC2)cn1 [Example 939, N-[4-({1-[(6-methylpyridin-3-yl)carbonyl]piperidin-4-yl}methyl)phenyl]-1-(pyridazin-3-yl)azetidine-3-carboxamide] — 210-fold lower, 2.96 nM
- O=C(N[C@H]1CCN(c2cccnn2)C1)c1ccc(C2CCN(C(=O)CC(F)(F)F)CC2)s1 [Example 1017, N-[(3S)-1-(pyridazin-3-yl)pyrrolidin-3-yl]-5-[1-(3,3,3-trifluoropropanoyl)piperidin-4-yl]thiophene-2-carboxamide] — within 1.5-fold, 752 nM
- Cc1nnccc1N1CC(C(=O)Nc2ccc(C3CCN(C(=O)c4ccccc4)CC3)cc2)C1 [Example 908, N-[4-(1-benzoylpiperidin-4-yl)phenyl]-1-(3-methylpyridazin-4-yl)azetidine-3-carboxamide] — 6.6-fold lower, 92.5 nM
- O=C(Nc1ccc(C2CCN(C(=O)c3cccc(F)c3)CC2)c(F)c1)C1CN(c2cccnn2)C1 [Example 879, N-{3-fluoro-4-[1-(3-fluorobenzoyl)piperidin-4-yl]phenyl}-1-(pyridazin-3-yl)azetidine-3-carboxamide] — 100-fold lower, 5.83 nM
- Cc1ccnnc1N1CC[C@H](C(=O)Nc2ccc(C3CCN(C(=O)c4ccccc4)CC3)cc2)C1 [Example 921, (3S)—N-[4-(1-benzoylpiperidin-4-yl)phenyl]-1-(4-methylpyridazin-3-yl)pyrrolidine-3-carboxamide] — 210-fold lower, 2.9 nM
- O=C(NC1CC1)c1ccc(NC(=O)C2CN(c3cccnn3)C2)cc1 [Example 1004, N-[4-(cyclopropylcarbamoyl)phenyl]-1-(pyridazin-3-yl)azetidine-3-carboxamide] — 13-fold higher, 7920 nM
- O=C(NC1CN2CCC1CC2)c1ccc(NC(=O)C2CN(c3cccnn3)C2)cc1 (centres unmarked) [Example 988, N-[4-(1-azabicyclo[2.2.2]oct-3-ylcarbamoyl)phenyl]-1-(pyridazin-3-yl)azetidine-3-carboxamide] — 2-fold higher, 1240 nM
- CCCC(C)C(=O)N1CCC(Cc2ccc(NC(=O)C3CN(c4cccnn4)C3)cc2)CC1 (centres unmarked) [Example 934, N-(4-{[1-(2-methylpentanoyl)piperidin-4-yl]methyl}phenyl)-1-(pyridazin-3-yl)azetidine-3-carboxamide] — 250-fold lower, 2.45 nM
- CC1(C)CC(NC(=O)c2ccc(NC(=O)C3CN(c4cccnn4)C3)cc2)CCO1 (centres unmarked) [Example 980, N-{4-[(2,2-dimethyltetrahydro-2H-pyran-4-yl)carbamoyl]phenyl}-1-(pyridazin-3-yl)azetidine-3-carboxamide] — 7.4-fold lower, 82.2 nM
- O=C(Nc1ccc(C2CCN(C(=O)CCC(F)(F)F)CC2)c(F)c1)C1CN(c2cccnn2)C1 [Example 883, N-{3-fluoro-4-[1-(4,4,4-trifluorobutanoyl)piperidin-4-yl]phenyl}-1-(pyridazin-3-yl)azetidine-3-carboxamide] — 20-fold lower, 30.9 nM
- C[C@@H](NC(=O)c1ccc(NC(=O)C2CN(c3cccnn3)C2)cc1)C1CC1 [Example 985, N-(4-{[(1R)-1-cyclopropylethyl]carbamoyl}phenyl)-1-(pyridazin-3-yl)azetidine-3-carboxamide] — within 1.5-fold, 635 nM
- Cc1ccc(N2CC(C(=O)Nc3ccc(C4CCN(C(=O)c5ccccc5)CC4)cc3)C2)cn1 [Example 876, N-[4-(1-benzoylpiperidin-4-yl)phenyl]-1-(6-methylpyridin-3-yl)azetidine-3-carboxamide] — 21-fold lower, 29.2 nM
- O=C(Nc1ccc(CC2CCN(C(=O)C3CCCC3)CC2)cc1)C1CN(c2cccnn2)C1 [Example 928, N-(4-{[1-(cyclopentylcarbonyl)piperidin-4-yl]methyl}phenyl)-1-(pyridazin-3-yl)azetidine-3-carboxamide] — 240-fold lower, 2.56 nM
- O=C(Nc1ccccc1)c1ccc(NC(=O)C2CN(c3cccnn3)C2)cc1 [Example 972, N-[4-(phenylcarbamoyl)phenyl]-1-(pyridazin-3-yl)azetidine-3-carboxamide] — within 1.5-fold, 667 nM
- Cc1ccnnc1N1CC(C(=O)Nc2ccc(C3CCN(C(=O)c4ccccc4)CC3)cc2)C1 [Example 906, N-[4-(1-benzoylpiperidin-4-yl)phenyl]-1-(4-methylpyridazin-3-yl)azetidine-3-carboxamide] — 690-fold lower, 0.879 nM
- CC(C)(C)CC(=O)N1CCC(c2ccc(C(=O)N[C@H]3CCN(c4cccnn4)C3)s2)CC1 [Example 1014, 5-[1-(3,3-dimethylbutanoyl)piperidin-4-yl]-N-[(3S)-1-(pyridazin-3-yl)pyrrolidin-3-yl]thiophene-2-carboxamide] — 2.8-fold lower, 219 nM
- CC(C)CCC(=O)N1CCC(Cc2ccc(NC(=O)C3CN(c4cccnn4)C3)cc2)CC1 [Example 935, N-(4-{[1-(4-methylpentanoyl)piperidin-4-yl]methyl}phenyl)-1-(pyridazin-3-yl)azetidine-3-carboxamide] — 300-fold lower, 2 nM
- O=C(Nc1ccc(CC2CCN(C(=O)c3ccoc3)CC2)cc1)C1CN(c2cccnn2)C1 [Example 955, N-(4-{[1-(furan-3-ylcarbonyl)piperidin-4-yl]methyl}phenyl)-1-(pyridazin-3-yl)azetidine-3-carboxamide] — 100-fold lower, 5.97 nM
- Cc1ccsc1C(=O)N1CCC(Cc2ccc(NC(=O)C3CN(c4cccnn4)C3)cc2)CC1 [Example 940, N-[4-({1-[(3-methylthiophen-2-yl)carbonyl]piperidin-4-yl}methyl)phenyl]-1-(pyridazin-3-yl)azetidine-3-carboxamide] — 310-fold lower, 1.97 nM
- O=C(Nc1ccc(CC2CCN(C(=O)c3cscn3)CC2)cc1)C1CN(c2cccnn2)C1 [Example 937, 1-(pyridazin-3-yl)-N-(4-{[1-(1,3-thiazol-4-ylcarbonyl)piperidin-4-yl]methyl}phenyl)azetidine-3-carboxamide] — 230-fold lower, 2.62 nM
- CN(CCNC(=O)c1ccc(NC(=O)C2CN(c3cccnn3)C2)cc1)c1ccccc1 [Example 982, N-[4-({2-[methyl(phenyl)amino]ethyl}carbamoyl)phenyl]-1-(pyridazin-3-yl)azetidine-3-carboxamide] — 7.3-fold lower, 83.5 nM
- CC1(C(=O)N2CCC(Cc3ccc(NC(=O)C4CN(c5cccnn5)C4)cc3)CC2)CC1 [Example 904, N-[4-({1-[(1-methylcyclopropyl)carbonyl]piperidin-4-yl}methyl)phenyl]-1-(pyridazin-3-yl)azetidine-3-carboxamide] — 310-fold lower, 1.95 nM
- O=C(NC1CCCC1)c1ccc(NC(=O)C2CN(c3cccnn3)C2)cc1 [Example 1005, N-[4-(cyclopentylcarbamoyl)phenyl]-1-(pyridazin-3-yl)azetidine-3-carboxamide] — within 1.5-fold, 592 nM
- O=C(Nc1ccc(CC2CCN(C(=O)c3cncs3)CC2)cc1)C1CN(c2cccnn2)C1 [Example 927, 1-(pyridazin-3-yl)-N-(4-{[1-(1,3-thiazol-5-ylcarbonyl)piperidin-4-yl]methyl}phenyl)azetidine-3-carboxamide] — 160-fold lower, 3.9 nM
- O=C(Nc1ccc(CC2CCN(C(=O)c3ccn[nH]3)CC2)cc1)C1CN(c2cccnn2)C1 [Example 938, N-(4-{[1-(1H-pyrazol-5-ylcarbonyl)piperidin-4-yl]methyl}phenyl)-1-(pyridazin-3-yl)azetidine-3-carboxamide] — 70-fold lower, 8.75 nM
- CC(C)(C)CNC(=O)c1ccc(NC(=O)C2CN(c3cccnn3)C2)cc1 [Example 973, N-{4-[(2,2-dimethylpropyl)carbamoyl]phenyl}-1-(pyridazin-3-yl)azetidine-3-carboxamide] — 110-fold lower, 5.53 nM
- O=C(Nc1ccc(CC2CCN(C(=O)C3CC3)CC2)cc1)C1CN(c2cccnn2)C1 [Example 967, N-(4-{[1-(cyclopropylcarbonyl)piperidin-4-yl]methyl}phenyl)-1-(pyridazin-3-yl)azetidine-3-carboxamide] — 200-fold lower, 3.05 nM
- CC(C)(C)CC(=O)N1CCC(n2cc(NC(=O)C3CN(c4cccnn4)C3)cn2)CC1 [Example 970, N-{1-[1-(3,3-dimethylbutanoyl)piperidin-4-yl]-1H-pyrazol-4-yl}-1-(pyridazin-3-yl)azetidine-3-carboxamide] — 21-fold lower, 28.5 nM
- Cc1ccnnc1N1CC[C@H](C(=O)Nc2ccc(C3CCN(C(=O)C(C)(C)C)CC3)cc2)C1 [Example 922, (3S)—N-{4-[1-(2,2-dimethylpropanoyl)piperidin-4-yl]phenyl}-1-(4-methylpyridazin-3-yl)pyrrolidine-3-carboxamide] — 180-fold lower, 3.38 nM
- CC1(NC(=O)c2ccc(NC(=O)C3CN(c4cccnn4)C3)cc2)CCC1 [Example 1011, N-{4-[(1-methylcyclobutyl)carbamoyl]phenyl}-1-(pyridazin-3-yl)azetidine-3-carboxamide] — 5.4-fold lower, 113 nM
